Reference: ChEMBL document CHEMBL4152352, “Discovery of a non-toxic [1,2,4]triazolo[1,5-a]pyrimidin-7-one (WS-10) that modulates ABCB1-mediated multidrug resistance (MDR)” (Bioorg Med Chem, 2018)
Activity calls are given as the source filed them. No cut-off for these calls is given here.

What was measured:
[1] = Ratio of paclitaxel IC50 for cytotoxicity against human SW620 cells in absence of test compound to paclitaxel IC50 for human SW620/Ad300 cells in presence to 10 uM test compound; assay type: functional
SW-620 [2] = experiment: Potentiation of doxorubicin-induced cytotoxicity against human SW620 cells assessed as change in doxorubicin IC50 at 10 uM after 72 hrs by MTT assay relative to control; assay type: cell-based; details: sw-620, 72 h
SW-620 [3] = experiment: Potentiation of cisplatin-induced cytotoxicity against human SW620 cells assessed as change in cisplatin IC50 at 4 uM after 72 hrs by MTT assay relative to control; assay type: cell-based; details: sw-620, 72 h
SGC-7901 = experiment: Cytotoxicity against human SGC7901 cells assessed as decrease in cell survival at 10 to 20 uM after 72 hrs by MTT assay; assay type: cell-based; details: sgc-7901, 72 h
SW620/AD300 [4] = experiment: Effect on expression of ABCB1 protein in human SW620/Ad300 cells at 10 to 20 uM by Western blot method; assay type: functional, cell-based
[5] = target: T1, ATP-dependent translocase ABCB1 (Homo sapiens, UniProt P08183); experiment: Stabilization of ABCB1 in human SW620/Ad300 cells at 10 uM after 30 mins by cellular thermal shift assay; assay type: cell-based; details: 0.5 h
SW-620 [6] = experiment: Potentiation of paclitaxel-induced cytotoxicity against human SW620 cells assessed as change in paclitaxel IC50 at 4 uM after 72 hrs by MTT assay relative to control; assay type: cell-based; details: sw-620, 72 h
HEK-293T [7] = experiment: Potentiation of cisplatin-induced cytotoxicity against HEK293T cells assessed as change in cisplatin IC50 at 4 uM after 72 hrs by MTT assay relative to control; assay type: cell-based; details: human
[8] = Ratio of cisplatin IC50 for cytotoxicity against HEK293T cells in absence of test compound to cisplatin IC50 for HEK293T cells expressing ABCB1 in presence of 4 uM test compound; assay type: functional, Homo sapiens
[9] = target: T1, ATP-dependent translocase ABCB1; experiment: Inhibition of ABCB1 in human SW620/Ad300 cells assessed as potentiation of paclitaxel-induced cytotoxicity after 72 hrs by MTT assay; assay type: cell-based
SW-620 [10] = experiment: Potentiation of doxorubicin-induced cytotoxicity against human SW620 cells assessed as change in doxorubicin IC50 at 20 uM after 72 hrs by MTT assay relative to control; assay type: cell-based; details: sw-620, 72 h
HEK-293T [11] = experiment: Potentiation of doxorubicin-induced cytotoxicity against HEK293T cells assessed as change in doxorubicin IC50 at 10 uM after 72 hrs by MTT assay relative to control; assay type: cell-based; details: human
SW620/AD300 [12] = experiment: Cytotoxicity against human SW620/AD300 cells assessed as decrease in cell survival after 72 hrs by MTT assay; assay type: cell-based; details: SW620/AD300, 72 h
HEK-293T [13] = experiment: Potentiation of paclitaxel-induced cytotoxicity against HEK293T cells assessed as change in paclitaxel IC50 at 4 uM after 72 hrs by MTT assay relative to control; assay type: cell-based; details: human
HEK-293T [14] = experiment: Potentiation of doxorubicin-induced cytotoxicity against HEK293T cells assessed as change in doxorubicin IC50 at 4 uM after 72 hrs by MTT assay relative to control; assay type: cell-based; details: human
[15] = Ratio of doxorubicin IC50 for cytotoxicity against human SW620 cells in absence of test compound to doxorubicin IC50 for human SW620/Ad300 cells in presence to 20 uM test compound; assay type: functional
SW-620 [16] = experiment: Potentiation of cisplatin-induced cytotoxicity against human SW620 cells assessed as change in cisplatin IC50 at 20 uM after 72 hrs by MTT assay relative to control; assay type: cell-based; details: sw-620, 72 h
[17] = target: T1, ATP-dependent translocase ABCB1; experiment: Inhibition of ABCB1 in human SW620/Ad300 cells assessed as potentiation of doxorubicin-induced cytotoxicity after 72 hrs by MTT assay; assay type: cell-based
SW-620 [18] = experiment: Potentiation of cisplatin-induced cytotoxicity against human SW620 cells assessed as change in cisplatin IC50 at 10 uM after 72 hrs by MTT assay relative to control; assay type: cell-based; details: sw-620, 72 h
[19] = Ratio of doxorubicin IC50 for cytotoxicity against human SW620 cells in absence of test compound to doxorubicin IC50 for human SW620/Ad300 cells in presence to 10 uM test compound; assay type: functional
SW-620 [20] = experiment: Potentiation of doxorubicin-induced cytotoxicity against human SW620 cells assessed as change in doxorubicin IC50 at 4 uM after 72 hrs by MTT assay relative to control; assay type: cell-based; details: sw-620, 72 h
[21] = Ratio of doxorubicin IC50 for cytotoxicity against HEK293T cells in absence of test compound to doxorubicin IC50 for HEK293T cells expressing ABCB1 in presence of 20 uM test compound; assay type: functional, Homo sapiens
[22] = Ratio of paclitaxel IC50 for cytotoxicity against human SW620 cells in absence of test compound to paclitaxel IC50 for human SW620/Ad300 cells in presence to 4 uM test compound; assay type: functional
[23] = Ratio of doxorubicin IC50 for cytotoxicity against HEK293T cells in absence of test compound to doxorubicin IC50 for HEK293T cells expressing ABCB1 in presence of 4 uM test compound; assay type: functional, Homo sapiens
HEK-293T [24] = experiment: Potentiation of doxorubicin-induced cytotoxicity against HEK293T cells assessed as change in doxorubicin IC50 at 20 uM after 72 hrs by MTT assay relative to control; assay type: cell-based; details: human
TE-1 = experiment: Cytotoxicity against human TE1 cells assessed as decrease in cell survival at 10 to 20 uM after 72 hrs by MTT assay; assay type: cell-based; details: te-1, 72 h
SW-620 [25] = experiment: Potentiation of paclitaxel-induced cytotoxicity against human SW620 cells assessed as change in paclitaxel IC50 at 20 uM after 72 hrs by MTT assay relative to control; assay type: cell-based; details: sw-620, 72 h
[26] = Ratio of doxorubicin IC50 for cytotoxicity against human SW620 cells in absence of test compound to doxorubicin IC50 for human SW620/Ad300 cells in presence to 4 uM test compound; assay type: functional
[27] = Ratio of paclitaxel IC50 for cytotoxicity against HEK293T cells in absence of test compound to paclitaxel IC50 for HEK293T cells expressing ABCB1 in presence of 10 uM test compound; assay type: functional, Homo sapiens
HEK-293T [28] = experiment: Potentiation of cisplatin-induced cytotoxicity against HEK293T cells assessed as change in cisplatin IC50 at 10 uM after 72 hrs by MTT assay relative to control; assay type: cell-based; details: human
SW-620 [29] = experiment: Potentiation of paclitaxel-induced cytotoxicity against human SW620 cells assessed as change in paclitaxel IC50 at 10 uM after 72 hrs by MTT assay relative to control; assay type: cell-based; details: sw-620, 72 h
[30] = Ratio of paclitaxel IC50 for cytotoxicity against HEK293T cells in absence of test compound to paclitaxel IC50 for HEK293T cells expressing ABCB1 in presence of 4 uM test compound; assay type: functional, Homo sapiens
[31] = Ratio of cisplatin IC50 for cytotoxicity against human SW620 cells in absence of test compound to cisplatin IC50 for human SW620/Ad300 cells in presence to 10 uM test compound; assay type: functional
[32] = target: T1, ATP-dependent translocase ABCB1; experiment: Inhibition of ABCB1 in human SW620/Ad300 cells assessed as increase in intracellular paclitaxel accumulation at 10 to 20 uM preincubated for 72 hrs followed by paclitaxel addition and measured after 3 hrs by UPLC method; assay type: cell-based
[33] = Ratio of cisplatin IC50 for cytotoxicity against HEK293T cells in absence of test compound to cisplatin IC50 for HEK293T cells expressing ABCB1 in presence of 20 uM test compound; assay type: functional, Homo sapiens
A549 = experiment: Cytotoxicity against human A549 cells assessed as decrease in cell survival at 10 to 20 uM after 72 hrs by MTT assay; assay type: cell-based; details: a549, 72 h
MGC-803 = experiment: Cytotoxicity against human MGC803 cells assessed as decrease in cell survival at 10 to 20 uM after 72 hrs by MTT assay; assay type: cell-based; details: mgc-803, 72 h
HEK-293T [34] = experiment: Potentiation of paclitaxel-induced cytotoxicity against HEK293T cells assessed as change in paclitaxel IC50 at 10 uM after 72 hrs by MTT assay relative to control; assay type: cell-based; details: human
SW620/AD300 [35] = experiment: Effect on expression of ABCB1 protein in human SW620/Ad300 cells at 20 uM after 24 to 96 hrs by Western blot method; assay type: functional, cell-based
[36] = Ratio of cisplatin IC50 for cytotoxicity against HEK293T cells in absence of test compound to cisplatin IC50 for HEK293T cells expressing ABCB1 in presence of 10 uM test compound; assay type: functional, Homo sapiens
[37] = Ratio of cisplatin IC50 for cytotoxicity against human SW620 cells in absence of test compound to cisplatin IC50 for human SW620/Ad300 cells in presence to 20 uM test compound; assay type: functional
HEK-293T [38] = experiment: Potentiation of paclitaxel-induced cytotoxicity against HEK293T cells assessed as change in paclitaxel IC50 at 20 uM after 72 hrs by MTT assay relative to control; assay type: cell-based; details: human
[39] = Ratio of paclitaxel IC50 for cytotoxicity against human SW620 cells in absence of test compound to paclitaxel IC50 for human SW620/Ad300 cells in presence to 20 uM test compound; assay type: functional
ECa-109 cell line = experiment: Cytotoxicity against human EC109 cells assessed as decrease in cell survival at 10 to 20 uM after 72 hrs by MTT assay; assay type: cell-based; details: eca-109, 72 h
[40] = target: T1, ATP-dependent translocase ABCB1; experiment: Inhibition of ABCB1 (unknown origin) expressed in HEK293T cells assessed as potentiation of doxorubicin-induced cytotoxicity after 72 hrs by MTT assay; assay type: cell-based
[41] = Ratio of doxorubicin IC50 for cytotoxicity against HEK293T cells in absence of test compound to doxorubicin IC50 for HEK293T cells expressing ABCB1 in presence of 10 uM test compound; assay type: functional, Homo sapiens
[42] = Ratio of cisplatin IC50 for cytotoxicity against human SW620 cells in absence of test compound to cisplatin IC50 for human SW620/Ad300 cells in presence to 4 uM test compound; assay type: functional
[43] = Ratio of paclitaxel IC50 for cytotoxicity against HEK293T cells in absence of test compound to paclitaxel IC50 for HEK293T cells expressing ABCB1 in presence of 20 uM test compound; assay type: functional, Homo sapiens
HEK-293T [44] = experiment: Potentiation of cisplatin-induced cytotoxicity against HEK293T cells assessed as change in cisplatin IC50 at 20 uM after 72 hrs by MTT assay relative to control; assay type: cell-based; details: human
SW-620 [45] = experiment: Cytotoxicity against human SW620 cells assessed as decrease in cell survival after 72 hrs by MTT assay; assay type: cell-based; details: SW-620, 72 h

T1 sequence (P08183 whole entry): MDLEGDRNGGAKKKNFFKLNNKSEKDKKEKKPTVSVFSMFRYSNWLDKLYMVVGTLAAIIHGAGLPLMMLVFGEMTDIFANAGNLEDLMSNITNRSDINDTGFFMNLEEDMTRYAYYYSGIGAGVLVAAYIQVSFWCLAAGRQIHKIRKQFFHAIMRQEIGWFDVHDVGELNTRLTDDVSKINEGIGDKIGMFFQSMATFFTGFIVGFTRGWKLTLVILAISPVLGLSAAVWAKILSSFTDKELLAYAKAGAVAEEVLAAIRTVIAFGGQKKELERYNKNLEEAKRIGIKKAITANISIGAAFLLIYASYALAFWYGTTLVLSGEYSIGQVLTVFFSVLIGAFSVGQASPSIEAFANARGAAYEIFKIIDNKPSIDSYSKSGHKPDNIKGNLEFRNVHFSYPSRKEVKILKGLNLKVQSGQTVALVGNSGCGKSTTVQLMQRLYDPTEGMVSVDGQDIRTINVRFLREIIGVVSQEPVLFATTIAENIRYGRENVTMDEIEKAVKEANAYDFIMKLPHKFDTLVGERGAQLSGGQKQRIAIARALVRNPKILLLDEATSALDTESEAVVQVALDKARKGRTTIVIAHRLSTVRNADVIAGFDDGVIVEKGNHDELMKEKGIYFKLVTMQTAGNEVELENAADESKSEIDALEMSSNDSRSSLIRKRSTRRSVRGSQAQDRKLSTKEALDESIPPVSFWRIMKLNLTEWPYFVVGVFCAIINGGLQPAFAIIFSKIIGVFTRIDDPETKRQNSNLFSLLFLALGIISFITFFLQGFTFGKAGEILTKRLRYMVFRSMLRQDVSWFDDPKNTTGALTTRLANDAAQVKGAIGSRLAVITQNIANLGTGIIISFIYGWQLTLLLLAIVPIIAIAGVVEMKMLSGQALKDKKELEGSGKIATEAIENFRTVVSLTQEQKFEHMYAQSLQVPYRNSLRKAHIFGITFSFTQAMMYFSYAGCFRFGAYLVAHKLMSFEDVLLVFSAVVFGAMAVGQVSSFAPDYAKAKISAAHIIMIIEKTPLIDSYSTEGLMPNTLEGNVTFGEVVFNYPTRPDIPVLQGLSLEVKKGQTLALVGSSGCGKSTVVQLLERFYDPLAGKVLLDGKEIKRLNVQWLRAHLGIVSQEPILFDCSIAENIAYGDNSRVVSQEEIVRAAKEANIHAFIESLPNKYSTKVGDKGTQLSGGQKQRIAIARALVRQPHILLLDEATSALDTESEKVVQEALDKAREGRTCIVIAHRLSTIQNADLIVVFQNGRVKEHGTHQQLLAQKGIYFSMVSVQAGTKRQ

Activity [5]: Active | inhibition (INH) [32]: Active
Structure (SMILES): O=c1cc(-c2ccccc2)[nH]c2nc(SCc3nc4ccccc4[nH]3)nn12
Ratio IC50 [1]: 279.2 | fold change (FC) (SW-620 [2]): 1.17 | fold change (FC) (SW-620 [3]): 1.1 | Activity (SGC-7901): Non-Toxic | Activity (SW620/AD300 [4]): inactive | fold change (FC) (SW-620 [6]): 1.29 | fold change (FC) (HEK-293T [7]): 0.89 | Ratio IC50 [8]: 0.91 | inhibition (INH) [9]: Dose-dependent effect | fold change (FC) (SW-620 [10]): 1.14 | fold change (FC) (HEK-293T [11]): 1.14 | IC50 (SW620/AD300 [12]): 106 µM | fold change (FC) (HEK-293T [13]): 0.84 | fold change (FC) (HEK-293T [14]): 1.07 | Ratio IC50 [15]: 3.77 | fold change (FC) (SW-620 [16]): 0.97 | inhibition (INH) [17]: Dose-dependent effect | fold change (FC) (SW-620 [18]): 1.07 | Ratio IC50 [19]: 6.02 | fold change (FC) (SW-620 [20]): 1.18 | Ratio IC50 [21]: 4.05 | Ratio IC50 [22]: 156.74 | Ratio IC50 [23]: 4.1 | fold change (FC) (HEK-293T [24]): 1.08 | Activity (TE-1): Non-Toxic | fold change (FC) (SW-620 [25]): 0.81 | Ratio IC50 [26]: 4.32 | Ratio IC50 [27]: 27.8 | fold change (FC) (HEK-293T [28]): 1.04 | fold change (FC) (SW-620 [29]): 1.2 | Ratio IC50 [30]: 15.69 | Ratio IC50 [31]: 0.96 | Ratio IC50 [33]: 0.91 | Activity (A549): Non-Toxic | Activity (MGC-803): Non-Toxic | fold change (FC) (HEK-293T [34]): 0.87 | Activity (SW620/AD300 [35]): inactive | Ratio IC50 [36]: 1.05 | Ratio IC50 [37]: 1.01 | fold change (FC) (HEK-293T [38]): 0.83 | Ratio IC50 [39]: 125.8 | Activity (ECa-109 cell line): Non-Toxic | inhibition (INH) [40]: Dose-dependent effect | Ratio IC50 [41]: 5.36 | Ratio IC50 [42]: 0.98 | Ratio IC50 [43]: 19.37 | fold change (FC) (HEK-293T [44]): 0.98 | IC50 (SW-620 [45]): 86 µM
